From PubChem BioAssay AID463204 (Broad Institute, 2010)
Active and inactive are the calls of the source.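 How the source made its calls: active means AC50 no more than ten times the top concentration tested, that is within one log above it; inconclusive means flat curve fit with activity between 30% and 70%, or invalid poor fit; inactive means AC50 beyond ten times the top tested dose.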

Tested on: S. cerevisiae Mot1-301 ts growth rescue, BacTiter-Glo ATP luminescence
Experiment: growth rescue of Mot1-301 ts yeast, confirmation, SUMOylation pathway inhibitor project, whole organism, S. cerevisiae, Mot1-301 ts mutant, luminescence, dose retest (AID 463204);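 further: growth at restrictive 38.5 degrees C of Mot1-301 OY566 strain; actives raise luminescence by restoring growth of the ts mutant at high temperature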

Row | SMILES | AC50
1 | O=C(/C=C/c1ccc(Cl)cc1)NCc1ccncc1 | > 42 µM (inactive)
2 | CCCCNC(=O)N1CCC(CCC(=O)N(C)Cc2ccccc2)CC1 | > 42 µM (inactive)
3 | O=C(COc1cccnc1[N+](=O)[O-])Nc1ccc2c(c1)CCC2 | > 21 µM (inactive)
4 | Cc1ccnc(NC(=O)CC(c2ccccc2)c2ccccc2)n1 | 29.8 µM
5 | Cc1cccc(N(Cc2ccccc2)C(=O)CSC(C)C(=O)Nc2cc(C)on2)c1 (configuration not stated) | > 42 µM (inactive)
6 | Cc1cc2c(cc1C)-c1nnc(-c3ccc4ccccc4n3)n1C(C)(C)C2 | > 42 µM (inactive)
7 | CCc1ccccc1NC1c2ccccc2C(=O)N1c1cccnc1 (configuration not stated) | > 42 µM (inactive)
8 | CSc1ccc(CCNC(=O)C2CCCN(S(=O)(=O)N3CCOCC3)C2)cc1 (configuration not stated) | > 42 µM (inactive)
9 | O=C(COC(=O)C1COc2ccccc2O1)NC1CCS(=O)(=O)C1 (configuration not stated) | > 42 µM (inactive)
10 | CCOc1ccc(/C=N/NS(=O)(=O)c2ccc(C)cc2)cc1OC | > 42 µM (inactive)
11 | FC(F)(F)c1nnc(-c2ccccc2)nc1Oc1ccc(Cl)cc1Cl | > 42 µM (inactive)
12 | Cc1ccc(NS(=O)(=O)c2c(C)[nH]c(C)c2C(=O)N2CCCCC2)c(Cl)c1 | > 42 µM (inactive)
13 | N#C/C(=C\Nc1ccc2c(c1)OCCO2)c1nc2ccccc2[nH]1 | > 42 µM (inactive)
14 | CCCCOC(=O)/C(=C/C=C/c1ccccc1)NC(=O)c1ccccc1 | > 42 µM (inactive)
15 | COC(=O)[C@@H]1[C@@H](C(=O)OC)C2(c3ccccc3-c3ccccc32)N(c2ccc(Cl)cc2)N1C#N | 1.72 µM
16 | Cc1nc(SCC(=O)O)n[nH]1 | > 42 µM (inactive)
17 | COc1ccc(Cl)cc1C(=O)NCCc1ccc(S(=O)(=O)NC(=O)NC2CCCCC2)cc1 | > 42 µM (inactive)
18 | O=C(O)CSc1ncnc2sc(-c3ccccc3)cc12 | > 42 µM (inactive)
19 | COc1ccc(N2CCN(C(c3cccs3)C(C)NS(C)(=O)=O)CC2)cc1 (configuration not stated) | > 42 µM (inactive)
20 | COC(=O)C1C2C=CC3(CN(CCc4ccccc4)C(=O)C13)O2 (configuration not stated) | > 21 µM (inactive)
21 | O=C(Nc1cccc(N=Cc2cc(Br)cc(Br)c2O)c1)c1ccco1 | 2.81 µM
22 | CC(C)(C)n1cnc2cc(NC(=O)c3ccc(Cl)cc3)ccc21 | > 42 µM (inactive)
23 | COc1ccc(CNS(=O)(=O)c2ccc3c(c2)CCN3C(=O)C2CCC2)cc1 | > 42 µM (inactive)
24 | Cc1nnc(C)n1/N=C/c1cc2ccccc2nc1Cl | > 42 µM (inactive)

Row | SMILES | AC50
25 | O=C(Nc1ccc([N+](=O)[O-])cn1)C1CC1 | > 42 µM (inactive)
26 | CCN(CC(=O)N1CCCCCC1)S(=O)(=O)c1ccc(Cl)cc1 | > 42 µM (inactive)
27 | CCOC(=O)c1cnc2ccc(Cl)cc2c1N1CCN(C)CC1 | > 42 µM (inactive)
28 | O=C(Nc1cccnc1Cl)c1cc2ccccc2o1 | > 42 µM (inactive)
29 | O=S(=O)(NCc1ccccc1)c1ccc(S(=O)(=O)N(Cc2ccccn2)Cc2ccco2)cc1 | > 42 µM (inactive)
30 | C[N+](C)(C)CC(=O)Nc1ccc(Cl)cc1C(=O)c1ccccc1 | > 42 µM (inactive)
31 | Cc1ccc(C(=O)Nc2ccc3c(c2)OCCO3)c(Cl)c1 | > 42 µM (inactive)
32 | CN(C)c1ccc(/C=C/c2cccc[n+]2[O-])cc1 | > 42 µM (inactive)
33 | Cc1ccc(S(=O)(=O)N2CCCC2C(=O)NCCc2ccccc2)cc1 (configuration not stated) | > 42 µM (inactive)
34 | COc1cc(NC(=O)c2ccccc2F)c(OC)cc1NC(=O)CN1CCCCC1 | > 42 µM (inactive)
35 | CCN(Cc1ccccc1)Cc1ccc(OCc2ccccc2)c(OC)c1 | > 42 µM (inactive)
36 | NC(=O)CC(NC(=S)NCc1ccccc1)C(=O)O (configuration not stated) | > 42 µM (inactive)
37 | O=C(CCNC(=O)c1ccccc1)Nc1cccnc1 | > 42 µM (inactive)
38 | CC1(C)Cc2nc3sc4c(OCc5ccccc5)ncnc4c3cc2CO1 | > 42 µM (inactive)
39 | Cc1cccc(N2C(=O)/C(=C/c3cccnc3)SC2=S)c1 | > 42 µM (inactive)
40 | CC(C)[C@H](NC(=O)C1(c2ccccc2)CCN(C(=O)OC(C)(C)C)CC1)C(=O)O | > 42 µM (inactive)
41 | Cc1c(N=Cc2cc(Br)cc(Br)c2O)cccc1C(=O)O | 3.14 µM
42 | COc1ccccc1-n1nnnc1SCC(=O)Nc1ccc(C)c(N)c1 | > 42 µM (inactive)
43 | O=C(COC(=O)Cc1ccsc1)NC1CCCCCC1 | > 42 µM (inactive)
44 | COC(=O)c1sc2ccccc2c1NC(=O)c1ccc(S(=O)(=O)N2CCCC(C)C2)cc1 (configuration not stated) | > 42 µM (inactive)
45 | CCOc1ccc(NC(=O)CN(C)C(=O)c2ccc(OCc3ccccc3)c(OC)c2)cc1OCC | > 42 µM (inactive)
46 | c1ccc2cc(Cn3ccnc3)ccc2c1 | > 42 µM (inactive)
47 | COc1ccc(NS(=O)(=O)c2cccc(C(=O)NCCCn3ccnc3)c2)cc1 | > 21 µM (inactive)
48 | COc1ccc(N2C(=O)CSC23CCCCC3)cc1 | > 42 µM (inactive)

Row | SMILES | AC50
49 | COc1c(C)cc(S(=O)(=O)NC2CC(C)(C)NC(C)(C)C2)c(C)c1C | > 42 µM (inactive)
50 | Cc1[nH]nc2c1C(c1cccs1)C1=C(CC(C)(C)CC1=O)N2 (configuration not stated) | > 42 µM (inactive)
51 | CC1C(=O)CC(c2ccccc2)N(C)C1c1ccccc1 (configuration not stated) | 33.7 µM
52 | Cn1c(=O)c2c(nc(N/N=C/c3ccc(OC(=O)c4ccco4)cc3)n2Cc2ccccc2Cl)n(C)c1=O | > 42 µM (inactive)
53 | COc1cccc(N2CCN(C3CCCC(C)C3)CC2)c1 (configuration not stated) | > 42 µM (inactive)
54 | CCOc1ccc(/C=N/NC(=O)c2ccc(CSc3nc4ccccc4[nH]3)cc2)cc1 | > 42 µM (inactive)
55 | COc1ccc(/C=N\NC(=O)c2cc(OCC(F)(F)F)ccc2OCC(F)(F)F)cc1 | > 42 µM (inactive)
56 | Cc1nc(-c2ccc(Cl)cc2)sc1C1(C)CC(c2c(Cl)cccc2Cl)=NO1 (configuration not stated) | > 42 µM (inactive)
57 | Cc1cc(C)nc(SCC2COc3ccccc3O2)n1 (configuration not stated) | > 42 µM (inactive)
58 | CNS(=O)(=O)c1cccc(C(=O)NCC2(N3CCCCC3)CCCCC2)c1 | 39.2 µM
59 | c1coc(C2OCC3(CO2)COC(c2ccco2)OC3)c1 (configuration not stated) | > 42 µM (inactive)
60 | Cc1ccc(O)c(CNc2nc3ccccc3n2C)c1 | > 42 µM (inactive)
61 | CSCCC(NC(=O)c1ccco1)C(=O)N1CCN(Cc2ccccc2)CC1 (configuration not stated) | > 42 µM (inactive)
62 | O=C(NC1CCCCC1)c1ccc2snnc2c1 | > 42 µM (inactive)
63 | COc1ccc(NC(=O)c2ccccc2NC(=O)NC2CCCCC2)cc1 | > 42 µM (inactive)
64 | Cc1ccc(/C=C/C(=O)OCC(=O)N(CC(C)C)c2c(N)n(Cc3ccccc3)c(=O)[nH]c2=O)o1 | > 21 µM (inactive)
65 | O=C(Cn1nc(C(F)(F)F)c2c1CCCC2)N1CCOCC1 | > 42 µM (inactive)
66 | CN/C(=C/[N+](=O)[O-])NCCSCc1ccc(CN(C)C)o1 | > 42 µM (inactive)
67 | O=C(CSc1nc2ccc(Nc3nc(N4CCOCC4)nc(N4CCOCC4)n3)cc2s1)N1CCOCC1 | > 42 µM (inactive)
68 | CC[C@@H]1C/C=C\Cc2ccccc2[C@H](C(=O)C[C@@H](O)CC(C)=O)OC1=O | 8.7 µM
69 | COc1ccc2c(c1)OC[C@H]1[C@H]2N2C(=O)c3cc(OC)c(OC)cc3NC(=O)[C@@]2(C)[C@H]1c1ccccc1 | 5.49 µM
70 | COc1ccc(CCNC(=O)C/C(C)=N/NC(=O)COc2ccc(C)cc2Br)cc1OC | > 42 µM (inactive)
71 | CCOC(=O)N1CCN(c2cc3[nH]c(=S)[nH]c3cc2F)CC1 | > 42 µM (inactive)
72 | CC(C)(C)c1ccc(CN(Cc2ccccc2)C(c2ccccn2)c2nnnn2C(C)(C)C)cc1 (configuration not stated) | > 42 µM (inactive)
